Measurements reported in patent US20110190373A1, “METHODS AND COMPOSITIONS FOR THE TREATMENT OR PREVENTION OF PATHOLOGICAL CARDIAC REMODELING AND HEART FAILURE” (UNIVERSITY OF ROCHESTER, priority 2008, published 2011).
Entries after “also recorded” stand apart in the source; their conditions may differ.

Tests used:
[1] = therapeutic doses, patients; cited from earlier work
[2] = tested on: rat neonatal cardiomyocytes; experiment: PE-induced cardiomyocyte hypertrophy, myocyte (cell) surface area; type: cell-based; conditions: NRVM
Description: (§1) FIGS. 3A-C show the effects of PDE1 inhibitors on pathological cardiomyocyte hypertrophy. Myocyte hypertrophy was induced in NRVM by α-adrenergic agonist, phenylephrine (PE). Hypertrophy was assessed by protein synthesis by measuring [^3H]-leucine incorporation (normalized to the total DNA content), or by myocyte surface area. PDE inhibitor 8-MM-IBMX (at 10 μM the concentration selective to PDE1) blocked PE-induced cardiomyocyte protein synthesis measured by [^3H]-leucine incorporation (FIG. 3A) or measured by myocyte surface area (FIG. 3B).
Effects of PDE1 inhibitor 8-MM-IBMX on PE-stimulated cell hypertrophic growth were measured by cell surface area (FIG. 3B). Rat neonatal cardiomyocytes were treated with either […] or vehicle, followed without (ctrl) or with PE stimulation. Cells were stained for α-actinin (a cardiomyocyte specific marker) to exclude the contamination of cardiac fibroblasts. At lease 100 α-actinin positive cells were analyzed. Cell surface area was measured by Image J program.
Effects of PDE1 inhibitor vinpocetine on PE-stimulated cell hypertrophic growth were measured by cell surface area (FIG. 3C). Rat neonatal cardiomyocytes were treated with either 20 μM Vinpocetine (vinp) or vehicle, followed without (ctrl) or with PE stimulation. Cell surface area was measured as above. Data were normalized to control (vehicle, without PE) that was arbitrarily set to 1.0. Data are means of at least 100 cells (mean±SD). […]
(§2) FIG. 4A illustrates a representative Western blot showing PDE1A protein expression in neonatal cardiomyocytes either not transfected (NT), or transfected with off-targeting control siRNA (1 μg) or rat PDE1A siRNA (0.5 or 1.0 μg) for 72 hours via electroporation. […] Protein synthesis assessed by [^3H]-leucine incorporation (normalized to the total DNA content) in NRVM transfected with 1 μg of control siRNA or PDE1A siRNA followed by PE (50 μmol/L) or vehicle (ctrl) stimulation for 48 hours (FIG. 4B). […] Data were quantified by densitometry in a linear range and normalized to GAPDH mRNA levels. […]

[3] = tested on: mouse cardiac hypertrophy; experiment: Cardiac hypertrophy induced by chronic ISO infusion in mice; type: in vivo; conditions: i.p. 10 mg/kg/d, ISO 30 mg/kg/d for 7 days
Description: FIGS. 5A-F illustrate that Vinpocetine attenuates cardiac hypertrophy in vivo. C57 mice received continuous vehicle (0.002% ascorbic acid in PBS) or ISO (30 mg/kg/d) infusion via osmotic pumps for 7 days, and also received daily DMSO or Vinpocetine treatment (i.p. 10 mg/kg/d). Control group (Con): mice receiving only vehicle infusion for 7 days. ISO group: mice receiving ISO infusion and DMSO treatment for 7 days. ISO+Vinp group: mice receiving ISO infusion and vinpocetine treatment for 7 days. After 7 days, animals were sacrificed and hearts were excised, weighed, frozen in −80° C. for mRNA assay, or fixed in 10% formalin for histology analysis. FIG. 5A are representative gross heart images showing effects of PDE1 inhibitor on cardiac hypertrophy. FIGS. 5B-C are graphs showing the effect of Vinpocetine on heart to body weight ratio or heart weight to tibial length ratio, respectively. […] FIGS. 5E-F are graphs showing the effect of Vinpocetine on ANP and BNP mRNA expression, respectively. Total RNA from left ventricles were subjected to real-time RT-PCR analyses for the mRNA levels of ANP and BNP. Data were normalized to control and sham samples that were arbitrarily set to 1.0. Data represent mean of 4 animals (mean±SEM). **P<0.01 vs. control mice. ##P<0.01 vs. ISO-infused mice without Vinpocetine. […] PDE1 is a well known biological target for Vinpocetine. […] Based on these reasons, the effects of Vinpocetine were tested on cardiomyocyte hypertrophy in vivo.

[4] = tested on: rat neonatal cardiomyocytes; experiment: PE-induced cardiomyocyte hypertrophy, protein synthesis by [3H]-leucine incorporation; type: cell-based; conditions: NRVM
Description: as §1
Rat neonatal cardiomyocytes were cultured in serum-free medium for 24 hours. […] Cells were lysed and ^3H-leucine incorporation in cell lysates were then measured by scintillation counter. […]
as §2

[5] = 20 μM, α-actinin positive cells

| Compound | side effects, toxicity or contraindications [1] | PE-induced hypertrophy measured by myocyte surface area [2, 5] | ISO-induced increase in cross-section areas of cardiomyocytes in left ventricles ([3]; H&E staining) | cardiac hypertrophy measured by gross heart morphology ([3]; mouse) | heart weight/body weight (HW/BW) ratio ([3]; mouse) | heart weight/tibia length (HW/TL) ratio ([3]; mouse) | ANP mRNA level in left ventricle ([3]; real-time RT-PCR) | BNP mRNA level in left ventricle ([3]; real-time RT-PCR) | PE-induced hypertrophy measured by myocyte surface area ([2]; 10 μM (figure legend)) | PE-induced cardiomyocyte protein synthesis measured by [3H]-leucine incorporation ([4]; 10 μM (figure legend)) | PE-induced hypertrophy assessed by protein synthesis with 3H-leucine incorporation ([4]; 20 μmol/L, PE 48 hours, normalized to DNA content) |
| --- | --- | --- | --- | --- | --- | --- | --- | --- | --- | --- | --- |
| CCOC(=O)C1=C[C@]2(CC)CCCN3CCc4c(n1c1ccccc41)[C@@H]32 [Vinpocetine, (+)-vinpocetine] | no reports of significant side effects, toxicity or contraindications | significantly reduced; also recorded: significantly blocked | significantly attenuated | significantly reduced | significantly reduced | significantly reduced | significantly decreased | significantly decreased |  |  |  |
| COCc1nc2c([nH]1)c(=O)n(C)c(=O)n2CC(C)C [8-MM-IBMX, 8-methoxymethyl-isobutylmethylxanthine] |  | significantly attenuated |  |  |  |  |  |  | blocked | blocked | significantly attenuated |
